Measurements as given in patent EP0007525A1, “2-(4-Aminopiperidino)-3.4-dihydroquinoline derivatives, processes for their preparation, pharmaceutical compositions containing them and their use” (HOECHST AKTIENGESELLSCHAFT, priority 1978, dated 1980).

Key:
Type in all cases: in vivo
narkosierten Hund = test: Blood pressure lowering in the anaesthetised dog (pentobarbital sodium), i.v. administration; settings: 1 mg/kg intravenous; for Blutdrucksenkung: significant lowering; for Dauer der Blutdrucksenkung: time over which lowering of at least 20 mm persists
Description: (§1) 1)Die blutdrucksenkende Wirkung wurde am narkosierten Hund und an der Hochdruckratete bestimmt.
Hunde werden mit Pentobarbital-Natrium (^(R)Nembutal) (35 mg/kg i.p.) narkotisiert, die Prüfsubstanz in Dosen von 0,5-5 mg/kg. intravenös appliziert und die Blutdrucksenkung laufend über 30 bis 60 Minuten, bei längerer Wirksamkeit auch länger, fortlaufend registriert. Eine signifikante Senkung von mindestens 20 mm über mindestens 30 Minuten tritt z.B. nach Applikation der Verbindungen der Beispiele Nr. 6 und 31b in Dosen von jeweils 1 mg/kg ein.

[1] = test system: mit Strophantin vergiftete Hund; test: Antiarrhythmic effect in the strophanthin-poisoned dog (ventricular extrasystoles, ECG); settings: dog poisoned with K-Strophanthin i.v. infusion until frequent ventricular extrasystoles; 1 mg/kg intravenous; active = arrhythmia completely abolished
From the text: 2) Zur Prüfung auf antiarrythmische Wirkung wird der mit Strophantin vergiftete Hund verwendet (Methode: Laszlo Szekeres, Institute of Pharmacology, University Medical School of Szeged, Hungary, Methods for Evaluating Antiarrhytmic Agents" in Methods in Pharmacology I, New York 1971, Herausgeber A. Schwartz).

[2] = test system: genetischen Hochdruckratte; test: Blood pressure lowering in the genetically hypertensive rat, oral administration; settings: 15 mg/kg per os, within 18 hours
Description: as §1
Zur Prüfung an der genetischen Hochdruckratte werden die Substanzen oral verabreicht. Die Verbindung des Beispiels 31b bewirkt bei einer Dosierung von 15 mg/kg per os innerhalb von 18 Stunden einen Blutdruckabfall von 30 - 50 mm.

| SMILES | Blutdrucksenkung (narkosierten Hund) | Dauer der Blutdrucksenkung (narkosierten Hund) | antiarrythmische Wirkung (Beseitigung der Rhythmusstörungen) [1] | Blutdruckabfall [2] |
| --- | --- | --- | --- | --- |
| COc1cc2c(cc1OC)N=C(N1CCC(NC(=O)c3ccccc3)CC1)CC2 [Beispiel 6] | ≥ 20 mm | ≥ 30 Minuten | – | – |
| CC(C)(C)OC(=O)NC1CCN(C2=Nc3ccccc3CC2)CC1 [Beispiel 31a, 2-(4-Tert.butyloxycarbonylamino-1-piperidyl)-3,4-dihydro-chinolin] | – | – | Rhythmusstörungen völlig zu beseitigen vermochte | – |
| NC1CCN(C2=Nc3ccccc3CC2)CC1 [Beispiel 31b, 2-(4-Amino-1-piperidyl)-3,4-dihydrochinolin] | ≥ 20 mm | ≥ 30 Minuten | – | 30 - 50 mm |
